Experimental data as given in ChEMBL document CHEMBL4130577, “Platanic acid: A new scaffold for the synthesis of cytotoxic agents” (Eur J Med Chem, 2018).

How the values were obtained:
NIH3T3 = assay: Cytotoxicity against mouse NIH/3T3 cells after 96 hrs by SRB assay; type: cell-based; settings: NIH3T3, 96 h
A549 = assay: Cytotoxicity against human A549 cells after 96 hrs by SRB assay; type: functional, cell-based; settings: A549, 96 h
A2780 = assay: Cytotoxicity against human A2780 cells after 96 hrs by SRB assay; type: functional, cell-based; settings: A2780, 96 h
HT-29 = assay: cells; settings: Homo sapiens, HT-29, 96 h
Description: Cytotoxicity against human HT-29 cells after 96 hrs by SRB assay

MCF7 = assay: Cytotoxicity against human MCF7 cells after 96 hrs by SRB assay; type: functional, cell-based; settings: MCF7, 96 h
518A2 = assay: Cytotoxicity against human 518A2 cells after 96 hrs by SRB assay; type: functional, cell-based; settings: 518A2, 96 h

Row | SMILES | EC50 (NIH3T3) [µM] | EC50 (A549) [µM] | EC50 (A2780) [µM] | EC50 (HT-29) [µM] | EC50 (MCF7) [µM] | EC50 (518A2) [µM]
1 | COC(=O)[C@]12CC[C@@H](NC(C)=O)[C@@H]1[C@H]1CC[C@@H]3[C@@]4(C)CC[C@H](O)C(C)(C)[C@@H]4CC[C@@]3(C)[C@]1(C)CC2 | > 30 | > 30 | > 30 | > 30 | > 30 | –
2 | CNC(=O)[C@@H]1CC[C@]2(C(=O)OC)CC[C@]3(C)[C@H](CC[C@@H]4[C@@]5(C)CC[C@H](O)C(C)(C)[C@@H]5CC[C@]43C)[C@@H]12 | > 30 | > 30 | > 30 | > 30 | > 30 | –
3 | CC(=O)O[C@H]1CC[C@]2(C)[C@H]3CC[C@@H]4[C@H]5[C@H](C(C)=O)CC[C@]5(N=C=O)CC[C@@]4(C)[C@]3(C)CC[C@H]2C1(C)C | > 30 | – | > 30 | > 30 | > 30 | –
4 | CC(=O)O[C@H]1CC[C@]2(C)[C@H]3CC[C@@H]4[C@H]5[C@H]([C@@H](C)N)CC[C@]5(C(=O)O)CC[C@@]4(C)[C@]3(C)CC[C@H]2C1(C)C | 27.2 | > 30 | > 30 | 20.7 | > 30 | 23.2
5 | CC(=O)[C@@H]1CC[C@]2(C(=O)OCc3ccccc3)CC[C@]3(C)[C@H](CC[C@@H]4[C@@]5(C)CCC(=O)C(C)(C)[C@@H]5CC[C@]43C)[C@@H]12 | > 30 | > 30 | > 30 | > 30 | > 30 | > 30
6 | CC(=O)[C@@H]1CC[C@]2(C(=O)O)CC[C@]3(C)[C@H](CC[C@@H]4[C@@]5(C)CC[C@H](O)C(C)(C)[C@@H]5CC[C@]43C)[C@@H]12 [PLATANIC ACID] | 35.4 | 47.3 | 37 | 36.2 | 34.2 | 44.8
7 | COC(=O)[C@]12CC[C@@H](C(C)=O)[C@@H]1[C@H]1CC[C@@H]3[C@@]4(C)CC[C@H](O)C(C)(C)[C@@H]4CC[C@@]3(C)[C@]1(C)CC2 | > 30 | > 30 | > 30 | > 30 | > 30 | –
8 | CC(=O)[C@@H]1CC[C@]2(C(=O)OCc3ccccc3)CC[C@]3(C)[C@H](CC[C@@H]4[C@@]5(C)CC[C@H](N)C(C)(C)[C@@H]5CC[C@]43C)[C@@H]12 | 2.3 | 2.1 | 2.2 | 1.5 | 1.8 | 1.9
9 | CC(=O)O[C@H]1CC[C@]2(C)[C@H]3CC[C@@H]4[C@H]5[C@H]([C@@H](C)N)CC[C@]5(C(=O)OCc5ccccc5)CC[C@@]4(C)[C@]3(C)CC[C@H]2C1(C)C | 4.1 | 3.1 | 4 | 2.3 | 3 | 2.2
10 | COC(=O)[C@]12CC[C@@H]([C@H](C)N)[C@@H]1[C@H]1CC[C@@H]3[C@@]4(C)CC[C@H](OC(C)=O)C(C)(C)[C@@H]4CC[C@@]3(C)[C@]1(C)CC2 | 4.4 | 6.6 | 6 | 2 | 4.6 | 6.3
11 | CC(=O)[C@@H]1CC[C@]2(C(=O)OCc3ccccc3)CC[C@]3(C)[C@H](CC[C@@H]4[C@@]5(C)CC[C@H](O)C(C)(C)[C@@H]5CC[C@]43C)[C@@H]12 | 18.1 | 15.9 | 15.8 | 10.1 | 9 | –
12 | COC(=O)[C@]12CC[C@@H]([C@@H](C)NC(C)=O)[C@@H]1[C@H]1CC[C@@H]3[C@@]4(C)CC[C@H](OC(C)=O)C(C)(C)[C@@H]4CC[C@@]3(C)[C@]1(C)CC2 | 16 | 22.9 | 27.3 | 27.6 | 21.4 | 27
13 | CC(=O)[C@@H]1CC[C@]2(C(=O)NCCN)CC[C@]3(C)[C@H](CC[C@@H]4[C@@]5(C)CC[C@H](O)C(C)(C)[C@@H]5CC[C@]43C)[C@@H]12 | 2.5 | 2.6 | 2.5 | 2.3 | 2.4 | 2.5
14 | CC(=O)O[C@H]1CC[C@]2(C)[C@H]3CC[C@@H]4[C@H]5[C@H](C(C)=O)CC[C@]5(C(=O)NCCN5CCCC5)CC[C@@]4(C)[C@]3(C)CC[C@H]2C1(C)C | 0.6 | 2.9 | 4.3 | 2.2 | 2 | 3.3
15 | CN[C@@H]1C[C@H]2O[C@@](C)([C@@H]1OC)n1c3ccccc3c3c4c(c5c6ccccc6n2c5c31)C(=O)NC4 [STAUROSPORINE] | 0.008 | 0.04 | 0.12 | 0.15 | – | –
16 | CC(=O)[C@@H]1CC[C@]2(C(=O)NCCN(C)C)CC[C@]3(C)[C@H](CC[C@@H]4[C@@]5(C)CC[C@H](O)C(C)(C)[C@@H]5CC[C@]43C)[C@@H]12 | 3.5 | 5.1 | 4 | 3.9 | 3.2 | 3.6
17 | COC(=O)[C@]12CC[C@@H]([C@H](C)NC(C)=O)[C@@H]1[C@H]1CC[C@@H]3[C@@]4(C)CC[C@H](OC(C)=O)C(C)(C)[C@@H]4CC[C@@]3(C)[C@]1(C)CC2 | 19.4 | 25.5 | 25.3 | 24.7 | 17.9 | 30.1
18 | CC(=O)O[C@H]1CC[C@]2(C)[C@H]3CC[C@@H]4[C@H]5[C@H](/C(C)=N/O)CC[C@]5(C(=O)OCc5ccccc5)CC[C@@]4(C)[C@]3(C)CC[C@H]2C1(C)C | 6.1 | 7.9 | 6.1 | 12.3 | 6.8 | 9
19 | COC(=O)[C@]12CC[C@@H](/C(C)=N/O)[C@@H]1[C@H]1CC[C@@H]3[C@@]4(C)CC[C@H](OC(C)=O)C(C)(C)[C@@H]4CC[C@@]3(C)[C@]1(C)CC2 | 14 | 8.2 | 12.2 | 14.4 | 12.4 | 7.8
20 | COC(=O)[C@]12CC[C@@H](C(C)=O)[C@@H]1[C@H]1CC[C@@H]3[C@@]4(C)CC[C@H](OC(C)=O)C(C)(C)[C@@H]4CC[C@@]3(C)[C@]1(C)CC2 | > 30 | – | > 30 | > 30 | > 30 | –
21 | CC(=O)O[C@H]1CC[C@]2(C)[C@H]3CC[C@@H]4[C@H]5[C@H](C(C)=O)CC[C@]5(C(=O)NCCN(C)C)CC[C@@]4(C)[C@]3(C)CC[C@H]2C1(C)C | 1.4 | 2.9 | 3.8 | 4.5 | 2.5 | 3.7
22 | C[C@@H](N)[C@@H]1CC[C@]2(CO)CC[C@]3(C)[C@H](CC[C@@H]4[C@@]5(C)CC[C@H](O)C(C)(C)[C@@H]5CC[C@]43C)[C@@H]12 | 16 | > 30 | > 30 | 20.3 | > 30 | 23.7
23 | CC(=O)O[C@H]1CC[C@]2(C)[C@H]3CC[C@@H]4[C@H]5[C@H](C(C)=O)CC[C@]5(C(=O)O)CC[C@@]4(C)[C@]3(C)CC[C@H]2C1(C)C | > 30 | > 30 | > 30 | > 30 | > 30 | > 30
24 | CC(=O)[C@@H]1CC[C@]2(N)CC[C@]3(C)[C@H](CC[C@@H]4[C@@]5(C)CC[C@H](O)C(C)(C)[C@@H]5CC[C@]43C)[C@@H]12 | 27.5 | > 30 | > 30 | 18.7 | > 30 | > 30
25 | CC(=O)O[C@H]1CC[C@]2(C)[C@H]3CC[C@@H]4[C@H]5[C@H](C(C)=O)CC[C@]5(C(=O)NCCN)CC[C@@]4(C)[C@]3(C)CC[C@H]2C1(C)C | 2.1 | 3.2 | 3.2 | 3.3 | 3.1 | 3.2
26 | CNC(=O)[C@@H]1CC[C@]2(C(=O)OC)CC[C@]3(C)[C@H](CC[C@@H]4[C@@]5(C)CC[C@H](OC(C)=O)C(C)(C)[C@@H]5CC[C@]43C)[C@@H]12 | > 30 | > 30 | 11.2 | > 30 | 13.9 | –
27 | COC(=O)[C@]12CC[C@@H](/C(C)=N/OC(C)=O)[C@@H]1[C@H]1CC[C@@H]3[C@@]4(C)CC[C@H](OC(C)=O)C(C)(C)[C@@H]4CC[C@@]3(C)[C@]1(C)CC2 | 15 | 13.5 | – | 23.8 | 13.1 | 16.5
28 | COC(=O)[C@]12CC[C@@H](NC(C)=O)[C@@H]1[C@H]1CC[C@@H]3[C@@]4(C)CC[C@H](OC(C)=O)C(C)(C)[C@@H]4CC[C@@]3(C)[C@]1(C)CC2 | 24.1 | 27.7 | 22.1 | > 30 | 10 | –
29 | CCC(=O)O/N=C(\C)[C@@H]1CC[C@]2(C(=O)OC)CC[C@]3(C)[C@H](CC[C@@H]4[C@@]5(C)CC[C@H](OC(C)=O)C(C)(C)[C@@H]5CC[C@]43C)[C@@H]12 | 15.3 | 13.2 | – | 28.7 | 13.4 | 17.9
30 | CC(=O)O[C@H]1CC[C@]2(C)[C@H]3CC[C@@H]4[C@H]5[C@H](C(C)=O)CC[C@]5(C(=O)OCc5ccccc5)CC[C@@]4(C)[C@]3(C)CC[C@H]2C1(C)C | > 30 | – | > 30 | > 30 | > 30 | –
